Data: patent publication US12129223B2, “Lipids for use in lipid nanoparticle formulations” (Acuitas Therapeutics, Inc., priority 2021, dated 2024)

How the values were obtained:
[1] = Determination of pKa of formulated lipids (TNS fluorescence assay in lipid nanoparticles); format: physicochemical; details: lipid nanoparticles (compound/DSPC/cholesterol/PEG-lipid), lipid formulated in LNP (lipid/DSPC/cholesterol/PEG-lipid), pH at half-maximal intensity
Method: As described elsewhere, the pKa of formulated lipids is correlated with the effectiveness of LNPs for delivery of nucleic acids (see Jayaraman et al, Angewandte Chemie, International Edition (2012), 51(34), 8529-8533; Semple et al, Nature Biotechnology 28, 172-176 (2010)). In some embodiments, the preferred range of pKa is ˜5 to ˜7. The pKa of each lipid is determined in lipid nanoparticles using an assay based on fluorescence of 2-(p-toluidino)-6-napthalene sulfonic acid (TNS). Lipid nanoparticles comprising compound of structure (I)/DSPC/cholesterol/PEG-lipid (50/10/38.5/1.5 or 47.5:10:40.7:1.8 mol %) in PBS at a concentration of 0.4 mM total lipid are prepared using the in-line process as described in Example 1. TNS is prepared as a 100 μM stock solution in distilled water. Vesicles are diluted to 24 μM lipid in 2 mL of buffered solutions containing 10 mM HEPES, 10 mM MES, 10 mM ammonium acetate, and 130 mM NaCl, where the pH ranged from 2.5 to 11. An aliquot of the TNS solution is added to give a final concentration of 1 μM and following vortex mixing fluorescence intensity is measured at room temperature in a SLM Aminco Series 2 Luminescence Spectrophotometer using excitation and emission wavelengths of 321 nm and 445 nm. A sigmoidal best fit analysis is applied to the fluorescence data and the pKa is measured as the pH giving rise to half-maximal fluorescence intensity.

[2] = tested on: luciferase expression in the liver; assay: Luciferase mRNA in vivo evaluation using lipid nanoparticle compositions; design: species or system mice; details: LNP with FLuc mRNA, tail vein injection; for Liver Luc, *Determined at 0.5 mg/kg: 0.5 mg mRNA/kg (starred cells of the 0.3 mg/kg column), liver 4 hours after administration; for Liver Luc @ 0.3 mg/kg: 0.3 mg mRNA/kg; for Liver Luc @ 0.3 mg/kg / Liver Luc @ 1.0 mg/kg: ng luciferase/g liver 4 hours after administration; for Liver Luc @ 1.0 mg/kg: 1.0 mg mRNA/kg
Method: A lipid of structure (I), DSPC, cholesterol and PEG-lipid are solubilized in ethanol at a molar ratio of 50:10:38.5:1.5 or 47.5:10:40.7:1.8. Lipid nanoparticles (LNP) are prepared at a total lipid to mRNA weight ratio of approximately 10:1 to 40:1. Briefly, the mRNA is diluted to 0.2 mg/mL in 10 to 50 mM citrate buffer, pH 4 or 10 to 25 mM acetate buffer, pH 4. Syringe pumps are used to mix the ethanolic lipid solution with the mRNA aqueous solution at a ratio of about 1:5 to 1:3 (vol/vol) with total flow rates above 15 mL/min. The ethanol is then removed and the external buffer replaced with PBS by dialysis. Finally, the lipid nanoparticles are filtered through a 0.2 µm pore sterile filter.
Studies are performed in 6-8 week old female C57BL/6 mice (Charles River) 8-10 week old CD-1 (Harlan) mice (Charles River) according to guidelines established by an institutional animal care committee (ACC) and the Canadian Council on Animal Care (CCAC). Varying doses of mRNA-lipid nanoparticle are systemically administered by tail vein injection and animals euthanized at a specific time point (e.g., 4 hours) post-administration. Liver and spleen are collected in pre-weighed tubes, weights determined, immediately snap frozen in liquid nitrogen and stored at −80° C. until processing for analysis.
For liver, approximately 50 mg is dissected for analyses in a 2 mL FastPrep tubes (MP Biomedicals, Solon OH). ¼″ ceramic sphere (MP Biomedicals) is added to each tube and 500 μL of Glo Lysis Buffer—GLB (Promega, Madison WI) equilibrated to room temperature is added to liver tissue. Liver tissues are homogenized with the FastPrep24 instrument (MP Biomedicals) at 2×6.0 m/s for 15 seconds. Homogenate is incubated at room temperature for 5 minutes prior to a 1:4 dilution in GLB and assessed using SteadyGlo Luciferase assay system (Promega). Specifically, 50 μL of diluted tissue homogenate is reacted with 50 μL of SteadyGlo substrate, shaken for 10 seconds followed by 5 minute incubation and then quantitated using a CentroXS^3 LB 960 luminometer (Berthold Technologies, Germany). The amount of protein assayed is determined by using the BCA protein assay kit (Pierce, Rockford, IL). Relative luminescence units (RLU) are then normalized to total μg protein assayed. To convert RLU to ng luciferase a standard curve is generated with QuantiLum Recombinant Luciferase (Promega).
The FLuc mRNA (L-6107) from Trilink Biotechnologies will express a luciferase protein, originally isolated from the firefly, Photinus pyralis. FLuc is commonly used in mammalian cell culture to measure both gene expression and cell viability. It emits bioluminescence in the presence of the substrate, luciferin. This capped and polyadenylated mRNA is fully substituted with 5-methylcytidine and pseudouridine.
Representative compounds of the disclosure shown in Table 2 were formulated using the following molar ratio: 50% cationic lipid/10% distearoylphosphatidylcholine (DSPC)/38.5% Cholesterol/1.5% PEG lipid 2-[2-(ω-methoxy(polyethyleneglycol2000)ethoxy]-N,N-ditetradecyl acetamide) or 47.5% cationic lipid/10% DSPC/40.7% Cholesterol/1.8% PEG lipid. Relative activity was determined by measuring luciferase expression in the liver 4 hours following administration via tail vein injection as described in Example 1 or by measuring the amount of human IgG in mouse serum as described in example 2. The activity was compared at a dose of 1.0 or 0.5 or 0.3 mg mRNA/kg and expressed as ng luciferase/g liver measured 4 hours after administration, as described in Example 1 or as μg IgG/mL serum measured 24 hours after administration, as described in Example 2. Compound numbers in Table 2 refer to the compound numbers of Table 1.

SMILES	pKa [1]	Liver Luc, *Determined at 0.5 mg/kg [2]	Liver Luc @ 0.3 mg/kg [2]	Liver Luc @ 1.0 mg/kg [2]
CCCCCCCCN(CCCCCCCC)C(=O)CCCCCN(CCO)CCCCCC(=O)N(CCCCCCCC)CCCCCCCC [Compound I-3, 6,6′-((2-hydroxyethyl)azanediyl)bis(N,N-dioctylhexanamide)]	6.87	227 ± 138* ng/g	–	–
CCCCCCCCCCN(CCCCCCCCCC)C(=O)CCCCCCCN(C)CCCCCCCC(=O)N(CCCCCCCCCC)CCCCCCCCCC [Compound I-6, 8,8′-(methylazanediyl)bis(N,N-didecyloctanamide)]	6.19	–	20084 ± 5967 ng/g	78367 ± 15904 ng/g
CCCCCCCCN(CCCCCCCC)C(=O)CCCCCCCN(C)CCCCCCCC(=O)N(CCCCCCCC)CCCCCCCC [Compound I-7, 8,8′-(methylazanediyl)bis(N,N-dioctyloctanamide)]	6.43	–	16595 ± 836 ng/g	81021 ± 24105 ng/g
CCCCCCCCN(CCCCCCCC)C(=O)CCCCCCCCCN(C)CCCCCCCCCC(=O)N(CCCCCCCC)CCCCCCCC [Compound I-8, 10,10′-(methylazanediyl)bis(N,N-dioctyldecanamide)]	6.02	–	8743 ± 2153 ng/g	37220 ± 15377 ng/g
CCCCCCCCCCCCCCCC(=O)N(CCCCCC)CCCCCCN(C)CCCCCCN(CCCCCC)C(=O)CCCCCCCCCCCCCCC [Compound I-9, N,N′-((methylazanediyl)bis(hexane-6,1-diyl))bis(N-hexylpalmitamide)]	6.83	–	4337 ± 1394 ng/g	21023 ± 12693 ng/g
CCCCCCCCCCN(CCCCCCCCCC)C(=O)CCCCCN(C)CCCCCC(=O)N(CCCCCCCCCC)CCCCCCCCCC [Compound I-10, 6,6′-(methylazanediyl)bis(N,N-didecylhexanamide)]	6.77	–	10779 ± 2473 ng/g	22622 ± 8189 ng/g
CCCCC/C=C\C/C=C\CCCCCCCC(=O)N(CCCCCC)CCCCCCN(C)CCCCCCN(CCCCCC)C(=O)CCCCCCC/C=C\C/C=C\CCCCC [Compound I-14, (9Z,9′Z,12Z,12′Z)—N,N′-((methylazanediyl)bis(hexane-6,1-diyl))bis(N-hexyloctadeca-9,12-dienamide)]	6.59	–	2738 ± 728 ng/g	5735 ± 2364 ng/g
CCCCCCCCN(CCCCCCCC)C(=O)CCCCCCCCCN(CCCCCCO)CCCCCCCCCC(=O)N(CCCCCCCC)CCCCCCCC [Compound I-18, 10,10′-((6-hydroxyhexyl)azanediyl)bis(N,N-dioctyldecanamide)]	6.02	–	7115 ± 2087 ng/g	14879 ± 1595 ng/g
CCCCCCCCCCN(CCCCCCCCCC)C(=O)CCCCCCCCCN(CCO)CCCCCCCCCC(=O)N(CCCCCCCCCC)CCCCCCCCCC [Compound I-20, 10,10′-((2-hydroxyethyl)azanediyl)bis(N,N-didecyldecanamide)]	6.27	879 ± 365* ng/g	–	–
CCCCCCCCCCN(CCCCCCCCCC)C(=O)CCCCCCCCCN(CCCCO)CCCCCCCCCC(=O)N(CCCCCCCCCC)CCCCCCCCCC [Compound I-25, 10,10′-((4-hydroxybutyl)azanediyl)bis(N,N-didecyldecanamide)]	6.28	–	20276 ± 3044 ng/g	64656 ± 24090 ng/g

Second part, led by results:

pKa [1]	SMILES	Liver Luc, *Determined at 0.5 mg/kg [2]	Liver Luc @ 0.3 mg/kg [2]	Liver Luc @ 1.0 mg/kg [2]
6.56	CCCCC(CC)CN(CC(CC)CCCC)C(=O)CCCCCN(CCCCO)CCCCCC(=O)N(CC(CC)CCCC)CC(CC)CCCC (stereo not drawn) [Compound I-27, 6,6′-((4-hydroxybutyl)azanediyl)bis(N,N-bis(2-ethylhexyl)hexanamide)]	21 ± 6* ng/g	–	–
6.22	CCCCCCCCCCN(CCCCCCCCCC)C(=O)CCCCCCCCCN(CCCCCCCCCC(=O)N(CCCCCCCCCC)CCCCCCCCCC)CCN(C)C [Compound I-28, 10,10′-((2-(dimethylamino)ethyl)azanediyl)bis(N,N-didecyldecanamide)]	–	6602 ± 2609 ng/g	13298 ± 4040 ng/g
6.16	CCCCCCCCCCNC(=O)CCCCN(CCCCCCCC(=O)N(CCCCCCCCCC)CCCCCCCCCC)CCCCCCCC(=O)N(CCCCCCCCCC)CCCCCCCCCC [Compound I-30, 8,8′-((5-(decylamino)-5-oxopentyl)azanediyl)bis(N,N-didecyloctanamide)]	–	6567 ± 1534 ng/g	19625 ± 2173 ng/g
5.91	CCCCCCCCCCN(CCCCCCCCCC)C(=O)CCCCCCCN(CCCCCCCC(=O)N(CCCCCCCCCC)CCCCCCCCCC)CCOCCOC [Compound I-46, 8,8′-((2-(2-methoxyethoxy)ethyl)azanediyl)bis(N,N-didecyloctanamide)]	–	10201 ± 2440 ng/g	52937 ± 8101 ng/g
6.22	CCCCCCCCCCN(CCCCCCCCCC)C(=O)CCCCCCCN(C)CCCCCCCC(=O)N(CCCCCCCC)CCCCCCCC [Compound I-55, N,N-didecyl-8-((8-(dioctylamino)-8-oxooctyl)(methyl)amino)octanamide]	–	8244 ± 1599 ng/g	30106 ± 13756 ng/g
6.24	CCCCCCCCCCN(CCCCCCCCCC)C(=O)CCCCCCCCCN(CCCCCCCCCC(=O)N(CCCCCCCCCC)CCCCCCCCCC)CCCn1ccnc1 [Compound I-57, 10,10′-((3-(1H-imidazol-1-yl)propyl)azanediyl)bis(N,N-didecyldecanamide)]	–	476 ± 134 ng/g	1456 ± 518 ng/g
6.19	CCCCCCCCCN(CCCCCCCCC)C(=O)CCCCCCCN(C)CCCCCCCC(=O)N(CCCCCCCCC)CCCCCCCCC [Compound I-58, 8,8′-(methylazanediyl)bis(N,N-dinonyloctanamide)]	–	18664 ± 5438 ng/g	73794 ± 14083 ng/g
6.27	CCCCCCCCCCN(CCCCCCCCCC)C(=O)CCCCCCCN(C)CCCCCCCC(=O)N(CCCCCCCCC)CCCCCCCCC [Compound I-59]	–	10786 ± 1924 ng/g	43489 ± 5698 ng/g
